Patent publication US11787785B2 (NOVARTIS AG, priority 2021, dated 2023)

Molecular target: T1, WIZ protein (HiBit-WIZ fusion protein) (Homo sapiens, UniProt O95785+Q96SW2)
T1 construct: expressed in transfected cells
Experiment: Quantification of WIZ protein levels in HiBit tag fusion protein assay (WIZ HiBit assay in 293T cells)
Type: cell-based
Design: remaining activity / Dmax: dose or concentration left out as unconfirmed
Details: for Dmax at 25 µM / remaining activity at 25 µM / Dmax / remaining activity: HEK-293T; for Dmax at 25 µM: 100 − Amax; for Dmax at 25 µM / remaining activity at 25 µM: 293T cells; for Dmax at 25 µM / Dmax: read-out: % degradation of WIZ (100 − Amax); for remaining activity at 25 µM: DMSO-normalized, curve-fitted percentage of WIZ-HiBit remaining at 25 uM; for remaining activity at 25 µM / remaining activity: read-out: WIZ Amax; for DC50: WIZ HiBit assay in 293T cells, 10-point, 5-fold dose response, highest concentration 25 μM, about 18 hours, read-out: WIZ AC50
Summary of the method: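 Luminescence after LgBit complementation quantified remaining HiBit-WIZ in lysates of single-copy stable 293T lines. Cells dosed ~18 h at 37 °C with 10-point, 5-fold dilutions (highest 25 μM); DMSO set to 100%, fitted curve gave % remaining at 25 μM (Amax).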

T1 sequence (O95785 whole entry, the tested form may be a part): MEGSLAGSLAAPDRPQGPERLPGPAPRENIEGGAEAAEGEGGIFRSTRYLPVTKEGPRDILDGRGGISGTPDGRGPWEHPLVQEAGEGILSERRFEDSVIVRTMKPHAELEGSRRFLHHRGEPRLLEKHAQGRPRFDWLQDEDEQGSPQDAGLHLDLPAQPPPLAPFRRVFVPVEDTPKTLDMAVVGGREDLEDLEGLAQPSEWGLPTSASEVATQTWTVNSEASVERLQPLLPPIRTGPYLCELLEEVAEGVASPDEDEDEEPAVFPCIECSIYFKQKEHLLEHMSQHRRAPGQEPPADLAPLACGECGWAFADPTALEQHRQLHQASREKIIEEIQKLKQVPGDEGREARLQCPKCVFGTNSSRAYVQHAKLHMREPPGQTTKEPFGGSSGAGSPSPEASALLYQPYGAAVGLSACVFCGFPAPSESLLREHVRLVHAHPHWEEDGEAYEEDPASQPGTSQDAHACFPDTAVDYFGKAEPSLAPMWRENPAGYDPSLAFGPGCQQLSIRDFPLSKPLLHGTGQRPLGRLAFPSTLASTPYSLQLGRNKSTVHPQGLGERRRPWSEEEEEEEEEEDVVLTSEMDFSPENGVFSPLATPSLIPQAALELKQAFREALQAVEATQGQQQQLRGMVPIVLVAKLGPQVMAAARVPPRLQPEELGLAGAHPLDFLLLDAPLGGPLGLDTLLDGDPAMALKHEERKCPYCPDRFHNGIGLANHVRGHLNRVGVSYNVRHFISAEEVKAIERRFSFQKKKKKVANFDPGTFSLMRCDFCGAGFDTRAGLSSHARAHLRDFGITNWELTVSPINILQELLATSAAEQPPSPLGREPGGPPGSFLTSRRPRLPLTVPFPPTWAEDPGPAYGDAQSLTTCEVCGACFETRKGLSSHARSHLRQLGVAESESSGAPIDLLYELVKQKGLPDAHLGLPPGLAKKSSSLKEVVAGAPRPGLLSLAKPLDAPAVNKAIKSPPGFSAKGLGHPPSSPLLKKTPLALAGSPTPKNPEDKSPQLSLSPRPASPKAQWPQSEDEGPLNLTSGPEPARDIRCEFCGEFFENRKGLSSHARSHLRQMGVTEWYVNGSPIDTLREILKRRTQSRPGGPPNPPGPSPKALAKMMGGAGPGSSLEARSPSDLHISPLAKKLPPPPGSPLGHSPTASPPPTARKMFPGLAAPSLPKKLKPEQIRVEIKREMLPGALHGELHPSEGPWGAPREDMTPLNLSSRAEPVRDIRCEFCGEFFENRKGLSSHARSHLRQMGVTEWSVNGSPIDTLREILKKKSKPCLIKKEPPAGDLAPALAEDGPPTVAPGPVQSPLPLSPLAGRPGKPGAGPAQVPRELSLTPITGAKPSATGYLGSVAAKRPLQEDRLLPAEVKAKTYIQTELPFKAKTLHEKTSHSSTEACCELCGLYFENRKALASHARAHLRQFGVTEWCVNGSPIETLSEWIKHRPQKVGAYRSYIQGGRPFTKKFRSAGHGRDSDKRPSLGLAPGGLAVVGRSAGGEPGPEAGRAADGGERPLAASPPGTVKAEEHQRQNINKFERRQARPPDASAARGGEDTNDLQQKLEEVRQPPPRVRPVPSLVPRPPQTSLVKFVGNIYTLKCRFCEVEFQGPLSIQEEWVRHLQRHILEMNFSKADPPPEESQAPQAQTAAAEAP
T1 sequence (Q96SW2 whole entry, the tested form may be a part): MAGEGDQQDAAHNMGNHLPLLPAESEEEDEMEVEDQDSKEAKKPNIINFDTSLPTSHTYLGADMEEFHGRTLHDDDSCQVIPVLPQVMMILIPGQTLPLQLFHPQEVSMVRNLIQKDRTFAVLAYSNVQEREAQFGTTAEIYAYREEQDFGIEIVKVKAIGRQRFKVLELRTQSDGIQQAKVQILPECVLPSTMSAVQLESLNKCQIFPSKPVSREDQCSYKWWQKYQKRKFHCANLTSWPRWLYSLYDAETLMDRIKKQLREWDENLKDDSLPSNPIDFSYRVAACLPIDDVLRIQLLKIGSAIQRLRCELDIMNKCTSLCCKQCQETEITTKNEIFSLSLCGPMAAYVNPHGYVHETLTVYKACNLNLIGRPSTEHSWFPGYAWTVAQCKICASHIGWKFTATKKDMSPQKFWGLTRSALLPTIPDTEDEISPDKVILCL
T1 sequence (Q16531 whole entry partner, the tested form may be a part): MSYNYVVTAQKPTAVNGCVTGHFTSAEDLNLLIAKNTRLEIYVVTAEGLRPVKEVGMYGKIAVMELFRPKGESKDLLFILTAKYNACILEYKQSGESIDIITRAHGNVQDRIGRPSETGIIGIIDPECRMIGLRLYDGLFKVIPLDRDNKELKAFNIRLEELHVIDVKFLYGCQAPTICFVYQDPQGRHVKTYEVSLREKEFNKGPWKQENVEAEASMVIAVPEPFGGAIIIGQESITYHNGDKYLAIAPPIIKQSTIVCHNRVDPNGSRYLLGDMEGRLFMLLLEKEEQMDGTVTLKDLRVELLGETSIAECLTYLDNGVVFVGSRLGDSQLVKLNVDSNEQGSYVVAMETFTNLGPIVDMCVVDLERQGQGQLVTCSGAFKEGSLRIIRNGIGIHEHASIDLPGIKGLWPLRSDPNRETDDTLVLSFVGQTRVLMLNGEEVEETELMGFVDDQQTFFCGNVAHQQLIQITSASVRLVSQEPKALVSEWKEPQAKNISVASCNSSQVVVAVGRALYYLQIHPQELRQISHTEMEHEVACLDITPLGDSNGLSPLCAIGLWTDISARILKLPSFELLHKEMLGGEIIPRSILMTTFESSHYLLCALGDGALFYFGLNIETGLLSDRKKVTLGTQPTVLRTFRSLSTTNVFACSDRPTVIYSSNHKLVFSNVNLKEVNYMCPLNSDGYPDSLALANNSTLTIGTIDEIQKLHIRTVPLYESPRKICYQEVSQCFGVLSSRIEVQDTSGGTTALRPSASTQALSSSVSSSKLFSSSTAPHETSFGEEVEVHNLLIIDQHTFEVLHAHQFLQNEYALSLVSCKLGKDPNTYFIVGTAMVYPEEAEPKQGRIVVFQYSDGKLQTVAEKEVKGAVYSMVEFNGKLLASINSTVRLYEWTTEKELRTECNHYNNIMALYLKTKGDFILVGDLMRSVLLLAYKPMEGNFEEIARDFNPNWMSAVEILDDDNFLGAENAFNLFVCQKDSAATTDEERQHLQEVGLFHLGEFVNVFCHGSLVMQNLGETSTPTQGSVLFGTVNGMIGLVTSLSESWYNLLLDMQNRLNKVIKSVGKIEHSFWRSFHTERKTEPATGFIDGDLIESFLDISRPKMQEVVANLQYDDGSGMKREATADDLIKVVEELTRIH

Dmax at 25 µM [%]	remaining activity at 25 µM [%]	DC50 [µM]	SMILES	Dmax [%]	remaining activity [%]
66	34	0.039	O=C1CCN(c2cnn3ccc(CC4CCN(Cc5cc(F)cc(C(F)(F)F)c5)CC4)cc23)C(=O)N1 [Example 51, 1-(5-((1-(3-fluoro-5-(trifluoromethyl)benzyl)piperidin-4-yl)methyl)pyrazolo[1,5-a]pyridin-3-yl)dihydropyrimidine-2,4(1H,3H)-dione]		
59	41	0.987	O=C1CCN(c2cnn3ccc(CC4CCN(CC(=O)N5CCCCC5)CC4)cc23)C(=O)N1 [Example 52, 1-(5-((1-(2-oxo-2-(piperidin-1-yl)ethyl)piperidin-4-yl)methyl)pyrazolo[1,5-a]pyridin-3-yl)dihydropyrimidine-2,4(1H,3H)-dione]		
65	35	0.037	O=C1CCN(c2cnn3ccc(CC4CCN(Cc5cccc(F)c5F)CC4)cc23)C(=O)N1 [Example 53, 1-(5-((1-(2,3-difluorobenzyl)piperidin-4-yl)methyl)pyrazolo[1,5-a]pyridin-3-yl)dihydropyrimidine-2,4(1H,3H)-dione]		
64	36	0.044	O=C1CCN(c2cnn3ccc(CC4CCN(Cc5ccc(C(F)(F)F)nc5)CC4)cc23)C(=O)N1 [Example 54, 1-(5-((1-((6-(trifluoromethyl)pyridin-3-yl)methyl)piperidin-4-yl)methyl)pyrazolo[1,5-a]pyridin-3-yl)dihydropyrimidine-2,4(1H,3H)-dione]		
64	36	0.103	O=C1CCN(c2cnn3ccc(CC4CCN(CC5(C(F)(F)F)CC5)CC4)cc23)C(=O)N1 [Example 55, 1-(5-((1-((1-(trifluoromethyl)cyclopropyl)methyl)piperidin-4-yl)methyl)pyrazolo[1,5-a]pyridin-3-yl)dihydropyrimidine-2,4(1H,3H)-dione]		
63	37	0.204	O=C1CCN(c2cnn3ccc(CC4CCN(Cc5ccc(OC(F)(F)F)cc5)CC4)cc23)C(=O)N1 [Example 56, 1-(5-((1-(4-(trifluoromethoxy)benzyl)piperidin-4-yl)methyl)pyrazolo[1,5-a]pyridin-3-yl)dihydropyrimidine-2,4(1H,3H)-dione]		
63	37	0.107	O=C1CCN(c2cnn3ccc(CC4CCN(Cc5ccc(C(F)(F)F)cc5)CC4)cc23)C(=O)N1 [Example 57, 1-(5-((1-(4-(trifluoromethyl)benzyl)piperidin-4-yl)methyl)pyrazolo[1,5-a]pyridin-3-yl)dihydropyrimidine-2,4(1H,3H)-dione]		
63	37	0.033	Cc1ccc(F)cc1CN1CCC(Cc2ccn3ncc(N4CCC(=O)NC4=O)c3c2)CC1 [Example 58, 1-(5-((1-(5-fluoro-2-methylbenzyl)piperidin-4-yl)methyl)pyrazolo[1,5-a]pyridin-3-yl)dihydropyrimidine-2,4(1H,3H)-dione]		
58	42	0.098	O=C1CCN(c2cnn3ccc(CC4CCN(Cc5ccccc5Cl)CC4)cc23)C(=O)N1 [Example 59, 1-(5-((1-(2-chlorobenzyl)piperidin-4-yl)methyl)pyrazolo[1,5-a]pyridin-3-yl)dihydropyrimidine-2,4(1H,3H)-dione]		
61	39	0.034	O=C1CCN(c2cnn3ccc(CC4CCN(Cc5nccs5)CC4)cc23)C(=O)N1 [Example 60, 1-(5-((1-(thiazol-2-ylmethyl)piperidin-4-yl)methyl)pyrazolo[1,5-a]pyridin-3-yl)dihydropyrimidine-2,4(1H,3H)-dione]		
62	38	1.74	COc1ccc(CN2CCC(Cc3ccn4ncc(N5CCC(=O)NC5=O)c4c3)CC2)cc1 [Example 61, 1-(5-((1-(4-methoxybenzyl)piperidin-4-yl)methyl)pyrazolo[1,5-a]pyridin-3-yl)dihydropyrimidine-2,4(1H,3H)-dione]		
73	27	0.049	CC(C)(CN1CCC(Cc2ccn3ncc(N4CCC(=O)NC4=O)c3c2)CC1)C(F)(F)F [Example 62, 1-(5-((1-(3,3,3-trifluoro-2,2-dimethylpropyl)piperidin-4-yl)methyl)pyrazolo[1,5-a]pyridin-3-yl)dihydropyrimidine-2,4(1H,3H)-dione]		
36	64	> 25	O=C1CCN(c2cnn3ccc(CC4CCN(CC5CCNCC5)CC4)cc23)C(=O)N1 [Example 63]		
94	6	0.043	CO[C@H]1CC[C@H](CN2CCC(Cc3ccn4ncc(N5CCC(=O)NC5=O)c4c3)CC2)CC1 [Example 64, 1-(5-((1-(((1r,4r)-4-methoxycyclohexyl)methyl)piperidin-4-yl)methyl)pyrazolo[1,5-a]pyridin-3-yl)dihydropyrimidine-2,4(1H,3H)-dione]		
94	6	0.032	CO[C@H]1CC[C@@H](CN2CCC(Cc3ccn4ncc(N5CCC(=O)NC5=O)c4c3)CC2)CC1 [Example 65, 1-(5-((1-(((1s,4s)-4-methoxycyclohexyl)methyl)piperidin-4-yl)methyl)pyrazolo[1,5-a]pyridin-3-yl)dihydropyrimidine-2,4(1H,3H)-dione]		
83	17	0.021	CC(C)C(C)N1CCC(Cc2ccn3ncc(N4CCC(=O)NC4=O)c3c2)CC1 (stereo not drawn) [Example 70, 1-(5-((1-(3-methylbutan-2-yl)piperidin-4-yl)methyl)pyrazolo[1,5-a]pyridin-3-yl)dihydropyrimidine-2,4(1H,3H)-dione]		
87	13	0.006	CC(C)CN1CC[C@H](Cc2ccn3ncc(N4CCC(=O)NC4=O)c3c2)C[C@@H]1C [Example 72]		
89	11	0.003	C[C@H]1C[C@@H](Cc2ccn3ncc(N4CCC(=O)NC4=O)c3c2)CCN1CC1CCOCC1 [Example 73]		
90	10	0.003	C[C@H]1C[C@@H](Cc2ccn3ncc(N4CCC(=O)NC4=O)c3c2)CCN1CC1CCC(F)(F)CC1 [Example 74]		
81	19	0.098	C[C@@H]1C[C@H](Cc2ccn3ncc(N4CCC(=O)NC4=O)c3c2)CCN1CC1CCOCC1 [Example 75]		
81	19	0.036	C[C@@H]1C[C@H](Cc2ccn3ncc(N4CCC(=O)NC4=O)c3c2)CCN1CC1CCCCC1 [Example 76]		
68	32	0.077	CC(C)CN1CC[C@@H](Cc2ccn3ncc(N4CCC(=O)NC4=O)c3c2)C[C@H]1C [Example 77]		
83	17	0.01	C[C@@H]1C[C@H](Cc2ccn3ncc(N4CCC(=O)NC4=O)c3c2)CCN1CC1CCC(F)(F)CC1 [Example 78]		
65	35	0.065	CC(C)CN1CCC(Cc2ccn3ncc(N4CCC(=O)NC4=O)c3c2)CC1(C)C (stereo not drawn) [Example 79, 1-(5-((1-isobutyl-2,2-dimethylpiperidin-4-yl)methyl)pyrazolo[1,5-a]pyridin-3-yl)dihydropyrimidine-2,4(1H,3H)-dione]		

SMILES	Dmax at 25 µM [%]	remaining activity at 25 µM [%]	DC50 [µM]	Dmax [%]	remaining activity [%]
O=C1CCN(c2cnn3ccc(CC4C[C@H]5CC[C@@H](C4)N5CC4CCCCC4)cc23)C(=O)N1 (stereo partly drawn) [Example 66, 1-(5-(((1R,5S)-8-(cyclohexylmethyl)-8-azabicyclo[3.2.1]octan-3-yl)methyl)pyrazolo[1,5-a]pyridin-3-yl)dihydropyrimidine-2,4(1H,3H)-dione]	72	28	0.195		
CC(C)CN1[C@@H]2CC[C@H]1CC(Cc1ccn3ncc(N4CCC(=O)NC4=O)c3c1)C2 (stereo partly drawn) [Example 67, 1-(5-(((1R,5S)-8-isobutyl-8-azabicyclo[3.2.1]octan-3-yl)methyl)pyrazolo[1,5-a]pyridin-3-yl)dihydropyrimidine-2,4(1H,3H)-dione]	61	39	0.561		
O=C1CCN(c2cnn3ccc(CC4C[C@H]5CC[C@@H](C4)N5Cc4cccnc4)cc23)C(=O)N1 (stereo partly drawn) [Example 68, 1-(5-(((1R,5S)-8-(pyridin-3-ylmethyl)-8-azabicyclo[3.2.1]octan-3-yl)methyl)pyrazolo[1,5-a]pyridin-3-yl)dihydropyrimidine-2,4(1H,3H)-dione]	57	43	0.384		
COc1ccnc(N2CCC(Cc3ccn4ncc(N5CCC(=O)NC5=O)c4c3)CC2)n1 [Example 69, 1-(5-((1-(4-methoxypyrimidin-2-yl)piperidin-4-yl)methyl)pyrazolo[1,5-a]pyridin-3-yl)dihydropyrimidine-2,4(1H,3H)-dione]			0.35	35	65
O=C1CCN(c2cnn3ccc(CC4CCN(S(=O)(=O)CC5CCCCC5)CC4)cc23)C(=O)N1 [Example 80, 1-(5-((1-((cyclohexylmethyl)sulfonyl)piperidin-4-yl)methyl)pyrazolo[1,5-a]pyridin-3-yl)dihydropyrimidine-2,4(1H,3H)-dione]			0.049	88	12
